The source of these data is patent US8034580B2, “Determining presence of antibiotic in a fluid” (DSM IP Assets B.V., priority 2003, dated 2011).

What all share (assay type): cell-based
The subject of experiment [1] is microorganism of Delvotest® MCS test medium. The experiment in a line: Delvotest MCS microbial inhibition test, sensitivity for different antibiotics, plate test or tube test (Example 2). The protocol:
[…] The sensitivity for different antibiotics was determined by investigating two sets of six experiments using either a plate test or a tube test system. The sensitivity was determined by reading the test at the moment at which an antibiotic-free control changed color.

Experiment [2] shares this test system. The experiment can be described thus: Production scale Delvotest MCS microbiological inhibition test, sensitivity for different antibiotics (Example 4). The method, then:
Two series of test systems were prepared on production scale. The first series is a commercially available Delvotest® MCS and the second series is as the first with Bromocresol Purple replaced with Bromothymol Blue (160 mg·l^−1). The sensitivity for different antibiotics was determined reading the test at the moment at which an antibiotic-free control changed color. The results are in the Table below (sensitivity values in ppb).

Experiment [3] has the same test system. The experiment in a line: Delvotest MCS microbial inhibition test, sensitivity for penicillin G (Example 1). The protocol:
Commercially available Delvotest® MCS, prepared according to the methods described in EP 0005891, was adapted by the replacement of the indicator Bromocresol Purple by Bromothymol Blue (160 mg·l^−1). The sensitivity for penicillin G was determined by investigating samples containing different concentrations of penicillin G in different test systems. The results are summarized in the Table below (sensitivity values in ppb).

For experiment [4] the test system is unchanged. The experiment in a line: Delvotest MCS type test systems with equal indicator concentration, sensitivity for penicillin G (Example 3). The protocol:
Two test systems were prepared. The first system differs only from a commercially available Delvotest® MCS in that the concentration of Bromocresol Purple is 160 mg·l^−1, and the second series is as the first with Bromocresol Purple replaced with Bromothymol Blue (160 mg·l^−1). The sensitivity for penicillin G was determined reading the test at the moment at which an antibiotic-free control changed color. From the results as shown in the Table below (sensitivity values in ppb) it can be seen that the sensitivity of Bromothymol Blue is better then that of Bromocresol Purple at the same concentrations of indicator.

Setting [5] is: indicator Bromocresol Purple (BP), experiment # 0.
The mark [6] stands for this setting: indicator Bromothymol Blue (160 mg·l^−1), plate test, experiment # 1.
[7] abbreviates: indicator Bromothymol Blue (160 mg·l^−1), plate test, experiment # 2.
The mark [8] stands for this setting: indicator Bromothymol Blue (160 mg·l^−1), plate test, experiment # 3.
[9] abbreviates: indicator Bromothymol Blue (160 mg·l^−1), plate test, experiment # 4.
The mark [10] stands for this setting: indicator Bromothymol Blue (160 mg·l^−1), plate test, experiment # 5.
The mark [11] stands for this setting: indicator Bromothymol Blue (160 mg·l^−1), plate test, experiment # 6.
[12] abbreviates: indicator Bromothymol Blue (160 mg·l^−1), tube test, experiment # 7.
Where [13] appears, read: indicator Bromothymol Blue (160 mg·l^−1), tube test, experiment # 8.
Setting [14] is: indicator Bromothymol Blue (160 mg·l^−1), tube test, experiment # 9.
Where [15] appears, read: indicator Bromothymol Blue (160 mg·l^−1), tube test, experiment # 10.
The mark [16] stands for this setting: indicator Bromothymol Blue (160 mg·l^−1), tube test, experiment # 11.
The mark [17] stands for this setting: indicator Bromothymol Blue (160 mg·l^−1), tube test, experiment # 12.
Setting [18] is: indicator Bromocresol Purple, Batch #1, three weeks after production.
Where [19] appears, read: indicator Bromothymol Blue (160 mg·l^−1), Batch #1, three weeks after production.

`CC1(C)S[C@@H]2[C@H](NC(=O)[C@H](N)c3ccc(O)cc3)C(=O)N2[C@H]1C(=O)O` [Amoxicillin]: the sensitivity is 8 ppb in experiment [1] (setting [5]); 4 ppb in experiment [1] (setting [6]); 2 ppb in experiment [1] (setting [7]); 2 ppb in experiment [1] (setting [8]); 2 ppb in experiment [1] (setting [9]); 2-4 ppb in experiment [1] (setting [10]). For the same molecule, the sensitivity was 2 ppb in experiment [1] (setting [11]); 4 ppb in experiment [1] (setting [12]); 4 ppb in experiment [1] (setting [13]); 4 ppb in experiment [1] (setting [14]); 4 ppb in experiment [1] (setting [15]); 4 ppb in experiment [1] (setting [16]). Moreover, the sensitivity in experiment [1] (setting [17]) worked out at 4 ppb; in experiment [2] (setting [18]), 8 ppb; in experiment [2] (setting [19]), 4 ppb.
Consider `CC1(C)S[C@@H]2[C@H](NC(=O)[C@H](N)c3ccccc3)C(=O)N2[C@H]1C(=O)O` [Ampicillin], for which the sensitivity in experiment [1] (setting [5]) amounted to 8 ppb; in experiment [1] (setting [6]), 2 ppb; in experiment [1] (setting [7]), 2 ppb; in experiment [1] (setting [8]), 2 ppb; in experiment [1] (setting [9]) it was 2 ppb; in experiment [1] (setting [10]) it was 2 ppb. The sensitivity in experiment [1] (setting [11]), in experiment [1] (setting [12]), in experiment [1] (setting [13]), in experiment [1] (setting [14]), in experiment [1] (setting [15]) and in experiment [1] (setting [16]) was 2 ppb in each case. The sensitivity in experiment [1] (setting [17]) turned out to be 2 ppb; in experiment [2] (setting [18]) it was 6 ppb; in experiment [2] (setting [19]) it was 2 ppb.
On to `CC(=O)OCC1=C(C(=O)O)N2C(=O)[C@@H](NC(=O)CSc3ccncc3)[C@H]2SC1` [Cephapirin], for which the sensitivity in experiment [1] (setting [5]) is on record as 8 ppb; in experiment [1] (setting [6]), 2 ppb; in experiment [1] (setting [7]) it was 2 ppb; in experiment [1] (setting [8]) it was 4 ppb; in experiment [1] (setting [9]), 6 ppb; in experiment [1] (setting [10]), 2 ppb. Further, the sensitivity in experiment [1] (setting [11]) is 4-6 ppb; in experiment [1] (setting [12]), 4 ppb; in experiment [1] (setting [13]), 4 ppb; in experiment [1] (setting [14]), 4 ppb; in experiment [1] (setting [15]), 4 ppb; in experiment [1] (setting [16]), 4 ppb. Further, the results for the sensitivity in experiment [1] (setting [17]), in experiment [2] (setting [18]) and in experiment [2] (setting [19]) were 4 ppb, 8 ppb and 4 ppb, respectively.
Take `Cc1onc(-c2ccccc2Cl)c1C(=O)N[C@@H]1C(=O)N2[C@@H]1SC(C)(C)[C@@H]2C(=O)O` [Cloxacillin]: the sensitivity in experiment [1] (setting [5]) turned out to be 40 ppb; in experiment [1] (setting [6]) it was 10 ppb; in experiment [1] (setting [7]), 10 ppb; in experiment [1] (setting [8]), 10 ppb; in experiment [1] (setting [9]) it was 10 ppb; in experiment [1] (setting [10]), 10 ppb. For the same molecule, the sensitivity in experiment [1] (setting [11]) amounted to 10 ppb; in experiment [1] (setting [12]), 20 ppb; in experiment [1] (setting [13]), 20 ppb; in experiment [1] (setting [14]) it was 20 ppb; in experiment [1] (setting [15]), 20 ppb; in experiment [1] (setting [16]), 20 ppb. The figures for the sensitivity in experiment [1] (setting [17]), in experiment [2] (setting [18]) and in experiment [2] (setting [19]) were 20 ppb, 40 ppb and 20 ppb, respectively.
With `CC1(C)S[C@@H]2[C@H](NC(=O)Cc3ccccc3)C(=O)N2[C@H]1C(=O)O` [Penicillin G], the sensitivity in experiment [3] (indicator Bromocresol Purple, Penicillin G concentrations of 0, 1, 2, 3 and 4 ppb investigated) turned out to be 3 ppb; in experiment [3] (indicator Bromocresol Purple, Penicillin G concentrations of 0, 2, 4 and 6 ppb investigated), 4 ppb; in experiment [3] (indicator Bromothymol Blue (160 mg·l^−1), Penicillin G concentrations of 0, 1, 2, 3 and 4 ppb investigated), 2 ppb; in experiment [3] (indicator Bromothymol Blue (160 mg·l^−1), Penicillin G concentrations of 0, 2, 4 and 6 ppb investigated), 2 ppb; in experiment [1] (setting [5]) it was 3 ppb; in experiment [1] (setting [6]) it was 1 ppb. In addition, the sensitivity in experiment [1] (setting [7]) is listed as 2 ppb; in experiment [1] (setting [8]), 1 ppb; in experiment [1] (setting [9]), 1 ppb; in experiment [1] (setting [10]) it was 1-2 ppb; in experiment [1] (setting [11]), 1 ppb; in experiment [1] (setting [12]) it was 2 ppb. Further, the sensitivity in experiment [1] (setting [13]) came to 2 ppb; in experiment [1] (setting [14]) it was 2 ppb; in experiment [1] (setting [15]), 2 ppb; in experiment [1] (setting [16]), 2 ppb; in experiment [1] (setting [17]) it was 2 ppb; in experiment [4] (indicator Bromocresol Purple (160 mg·l^−1)), 3 ppb. In addition, the sensitivity in experiment [4] (indicator Bromothymol Blue (160 mg·l^−1)) was 2 ppb; in experiment [2] (indicator Bromocresol Purple, Batch #1, immediately after production), 3 ppb; in experiment [2] (setting [18]), 3 ppb; in experiment [2] (indicator Bromothymol Blue (160 mg·l^−1), Batch #1, immediately after production), 2 ppb; in experiment [2] (setting [19]), 2 ppb.
Take `Nc1ccc(S(=O)(=O)Nc2ncccn2)cc1` [Sulfadiazine]: the “sensitivity with Bromothymol Blue in comparison with Bromocresol purple” value in experiment [1] (comparison of the two indicators, in words) is reported as “identical”. In addition, the sensitivity in experiment [1] (setting [5]), in experiment [1] (setting [6]), in experiment [1] (setting [7]), in experiment [1] (setting [8]), in experiment [1] (setting [9]) and in experiment [1] (setting [10]) was 50 ppb each time. Also, the sensitivity in experiment [1] (setting [11]), in experiment [1] (setting [12]), in experiment [1] (setting [13]), in experiment [1] (setting [14]), in experiment [1] (setting [15]) and in experiment [1] (setting [16]) was 50 ppb each time. This molecule also showed a sensitivity in experiment [1] (setting [17]) of 50 ppb.
Neomycin: the sensitivity is given as 600 ppb in experiment [1] (setting [5]); 100 ppb in experiment [1] (setting [6]); 100 ppb in experiment [1] (setting [7]); 100 ppb in experiment [1] (setting [8]); 100 ppb in experiment [1] (setting [9]); 100 ppb in experiment [1] (setting [10]). The sensitivity in experiment [1] (setting [11]) is 100 ppb; in experiment [1] (setting [12]) it was 200 ppb; in experiment [1] (setting [13]), 200 ppb; in experiment [1] (setting [14]), 200 ppb; in experiment [1] (setting [15]) it was 200 ppb; in experiment [1] (setting [16]), 200 ppb. Moreover, the sensitivity in experiment [1] (setting [17]) came to 200 ppb; in experiment [2] (setting [18]), 400 ppb; in experiment [2] (setting [19]), 200 ppb.
